Data taken from the supplement of paper PMC10307832.

Experiments:
Test in all cases: relative viability (nuclei count vs DMSO), 5 days (fraction); higher = more cells survive
Salubrinal + Phenformin = compound: O=C(/C=C/c1ccccc1)NC(NC(=S)Nc1cccc2cccnc12)C(Cl)(Cl)Cl [Salubrinal] + N=C(N)NC(=N)NCCc1ccccc1 [Phenformin] (partner 250 µM)
How it was run: (§1)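 Each reported value is a median over duplicate plates. It expresses relative viability: treated-well nuclei count divided by vehicle-well nuclei count. Lung cancer cell lines in 1536-well plates were dosed by pin tool a day after seeding, alone with one drug or with a fixed anchor-drug dose plus five library-drug doses (not always all listed) in √10 steps, and nuclei were counted after 5 days.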

[1] = compound: Cc1ccc2nc(NCCN)c3ncc(C)n3c2c1 + Cc1nc(NC(=O)N2CCC[C@H]2C(N)=O)sc1-c1ccnc(C(C)(C)C(F)(F)F)c1 [Alpelisib] (partner 2 µM)
How it was run: as §1

Salubrinal + Foretinib = compound: O=C(/C=C/c1ccccc1)NC(NC(=S)Nc1cccc2cccnc12)C(Cl)(Cl)Cl [Salubrinal] + COc1cc2c(Oc3ccc(NC(=O)C4(C(=O)Nc5ccc(F)cc5)CC4)cc3F)ccnc2cc1OCCCN1CCOCC1 [Foretinib] (partner 0.25 µM)
How it was run: as §1

[2] = compound: Cc1ccc2nc(NCCN)c3ncc(C)n3c2c1 + Cc1nc(Nc2ncc(C(=O)Nc3c(C)cccc3Cl)s2)cc(N2CCN(CCO)CC2)n1 [Dasatinib] (partner 0.075 µM)
How it was run: as §1

| Cell Line | relative viability (Salubrinal + Phenformin; first compound 0.08 µM) | relative viability (Salubrinal + Phenformin; first compound 0.253 µM) | relative viability (Salubrinal + Phenformin; first compound 0.8 µM) | relative viability (Salubrinal + Phenformin; first compound 2.53 µM) | relative viability (Salubrinal + Phenformin; first compound 8 µM) | relative viability ([1]; first compound 0.04 µM) | relative viability ([1]; first compound 0.1265 µM) | relative viability ([1]; first compound 0.4 µM) | relative viability ([1]; first compound 1.265 µM) | relative viability ([1]; first compound 4 µM) | relative viability (Salubrinal + Foretinib; first compound 0.08 µM) | relative viability (Salubrinal + Foretinib; first compound 0.8 µM) | relative viability (Salubrinal + Foretinib; first compound 2.53 µM) | relative viability (Salubrinal + Foretinib; first compound 8 µM) | relative viability ([2]; first compound 0.04 µM) | relative viability ([2]; first compound 0.1265 µM) | relative viability ([2]; first compound 0.4 µM) | relative viability ([2]; first compound 1.265 µM) | relative viability ([2]; first compound 4 µM) | relative viability (Salubrinal + Foretinib; first compound 0.253 µM) |
| --- | --- | --- | --- | --- | --- | --- | --- | --- | --- | --- | --- | --- | --- | --- | --- | --- | --- | --- | --- | --- |
| 201T | 0.44 | 0.32 | 0.508 | 0.462 | 0.456 | 1.03 | 1.01 | 1.02 | 1.05 | 1.02 | 1.36 | 1.17 | 1.04 | 1.12 | 0.56 | 0.501 | 0.587 | 0.524 | 0.483 | – |
| A549 | 0.174 | 0.143 | 0.175 | 0.119 | 0.17 | 0.978 | 0.741 | 0.722 | 1.01 | 0.611 | 1.01 | 0.932 | 0.861 | 0.892 | – | – | – | – | – | 0.753 |
| A-427 | 0.326 | 0.336 | 0.382 | 0.292 | 0.28 | 1.09 | 1.13 | 1.05 | 1.07 | 1.14 | 0.993 | 1.18 | 1.02 | 1.17 | 0.682 | 0.654 | 0.644 | 0.632 | 0.628 | 1.32 |
| ABC-1 | 0.225 | 0.268 | 0.281 | 0.214 | 0.24 | 1.15 | 1.27 | 1.18 | 1.15 | 0.742 | 1.15 | 0.972 | 0.993 | 0.886 | 0.613 | 0.573 | 0.501 | 0.57 | 0.594 | 1.05 |
| BEN | 0.269 | 0.259 | 0.432 | 0.273 | 0.249 | 1.06 | 0.787 | 1.09 | 0.807 | 1.19 | 0.505 | 1.01 | 0.627 | 0.643 | 0.329 | 0.291 | 0.27 | 0.363 | 0.374 | 0.867 |
| CAL-12T | 0.627 | 0.485 | 0.613 | 0.578 | 0.438 | 1.17 | 1.11 | 1.3 | 1.25 | 0.992 | 1.14 | 1.09 | 0.978 | 0.991 | 0.34 | 0.342 | 0.373 | 0.387 | 0.294 | 1.07 |
| COR-L23 | 0.526 | 0.359 | 0.458 | 0.422 | 0.433 | 0.904 | 0.663 | 0.916 | 0.809 | 0.495 | 1.1 | 1.13 | 1.01 | 0.889 | 0.525 | 0.514 | 0.518 | 0.46 | 0.403 | 0.932 |
| COR-L 105 | 0.556 | 0.479 | 0.452 | 0.511 | 0.42 | 0.977 | 1.04 | 1.27 | 1.13 | 0.75 | 0.981 | 1.22 | 0.892 | 1.02 | 0.446 | 0.385 | 0.416 | 0.402 | 0.343 | 1.14 |
| Calu-6 | – | – | – | – | – | 1.05 | 0.923 | 1.01 | 1.04 | 0.719 | 0.979 | 0.907 | 0.806 | 0.803 | – | – | – | – | – | 0.865 |
| ChaGo-K-1 | 0.506 | 0.461 | 0.535 | 0.455 | 0.45 | – | – | – | – | – | 0.989 | 0.892 | 0.869 | 0.802 | 0.551 | 0.659 | 0.659 | 0.504 | 0.566 | 0.956 |
| EBC-1 | – | – | – | – | – | 1.04 | 0.734 | 0.795 | 0.643 | 0.617 | 0.112 | 0.12 | 0.102 | 0.0993 | – | – | – | – | – | 0.0951 |
| EKVX | 0.228 | 0.23 | 0.236 | 0.203 | 0.228 | 0.962 | 0.856 | 0.83 | 0.808 | 0.778 | 0.755 | 0.82 | 0.714 | 0.792 | 0.523 | 0.548 | 0.466 | 0.37 | 0.46 | 0.776 |
| EMC-BAC-2 | 0.471 | 0.326 | 0.601 | 0.513 | 0.493 | 0.748 | 0.722 | 0.72 | 0.793 | 0.719 | 0.975 | 1.21 | 1.03 | 0.98 | 0.339 | 0.335 | 0.345 | 0.276 | 0.307 | 1 |
| EPLC-272H | 0.256 | 0.236 | 0.342 | 0.259 | 0.282 | 1.07 | 0.937 | 0.896 | 1.06 | 0.96 | 0.853 | 0.65 | 0.64 | 0.519 | 0.414 | 0.411 | 0.489 | 0.406 | 0.382 | 0.655 |
| H3255 | 0.364 | 0.349 | 0.44 | 0.386 | 0.335 | 0.77 | 0.613 | 0.705 | 0.659 | 0.593 | 0.898 | 1.01 | 0.822 | 0.874 | 0.396 | 0.393 | 0.45 | 0.383 | 0.387 | 0.953 |
| HARA | 0.607 | 0.484 | 0.483 | 0.445 | 0.47 | 0.839 | 0.831 | 0.804 | 0.715 | 0.788 | 0.836 | 0.917 | 1.08 | 0.69 | 0.295 | 0.282 | 0.313 | 0.243 | 0.255 | 0.628 |
| HCC-15 | 0.524 | 0.431 | 0.533 | 0.487 | 0.391 | 0.879 | 0.906 | 0.93 | 0.868 | 0.814 | 1.21 | 1.07 | 1.08 | 1.06 | 0.703 | 0.666 | 0.646 | 0.575 | 0.391 | 0.999 |
| HCC-44 | 0.193 | 0.212 | 0.391 | 0.364 | 0.182 | 0.776 | 0.787 | 0.786 | 0.711 | 0.769 | – | – | – | – | – | – | – | – | – | – |
